{"source": "patent EP0067711A2", "about": "“New 1-benzyl-3,4-dihydro-isoquinoline derivative” (CHINOIN Gyogyszer és Vegyészeti Termékek Gyára RT., priority 1981, dated 1982)", "key": {"[1]": {"system": "acute coronary insufficiency induced by vasopressine", "assay": "anti-angina activity: inhibition of vasopressine-induced acute coronary insufficiency (rise of T-wave on ECG), method of Papp and Szekeres", "format": "in vivo, rats belonging to the CFY strain", "settings": "vasopressine 2 IU/kg i.v., pentobarbital anaesthetized CFY rats; papaverin = 1"}, "[2]": {"system": "haemodynamic and cardiovascular system", "assay": "general effects on the haemodynamic and cardiovascular system in pentobarbital anaesthetized dogs", "format": "in vivo", "set-up": "A. vertebralis flow, Changed value: unit not given here", "settings": "2 mg/kg i.v."}, "[3]": {"system": "electric fibrillation threshold of the auricle and ventricle", "assay": "antiarrhythmial effect: change of electric fibrillation threshold in chloralose-urethane anaesthetized cats", "format": "in vivo", "settings": "2 mg/kg i.v.", "experimental": "The antiarrhythmial effect is determined on chloralose-urethane anaesthetized cats [500/300 mg/kg i.p.] by measuring the changes of the electric fibrillation threshold of the auricle and ventricle respectively [method of Szekeres, Méhes and Papp: Brit. 0. Pharmacol. 17, 167 (1961) and that of Szekeres and Papp: Hdb. exp. Pharmacol. 16/3, 131 (1975) respectively]. The general effects exerted on the haemodynamic and cardiovascular system are tested on pentobarbital anaesthetized dogs (35 mg/kg i.v.)."}, "acute toxicity on rats": {"assay": "acute toxicity on rats", "settings": "rat, in vivo", "excerpt": "(§1) The acute toxicity of the compound of the Formula I is characterized by the data enumerated in Table 3."}, "acute toxicity on mice": {"assay": "acute toxicity on mice", "settings": "mouse, in vivo, po", "excerpt": "as §1"}}, "data": [{"compound": "CCOc1ccc(CC2=NCCc3cc(OCC)c(OCC)cc32)cc1O", "note": "[Formula I, 6,7-diethoxy-1-(4-ethoxy-3-hydroxy-benzyl)-3,4-dihydro-isoquinoline]", "values": [{"measurement": "anti-angina activity related to that of papaverin", "setting": "[1]", "value": 1.40}, {"measurement": "A. carotis flow, Duration of effect", "setting": "[2]", "value": 7, "unit": "min"}, {"measurement": "A. carotis flow, Percental difference", "setting": "[2]", "value": "+27"}, {"measurement": "A. carotis resistance, Duration of effect", "setting": "[2]", "value": 7, "unit": "min"}, {"measurement": "A. carotis resistance, Percental difference", "setting": "[2]", "value": -13}, {"measurement": "A. femoralis flow, Duration of effect", "setting": "[2]", "value": 3, "unit": "min"}, {"measurement": "A. femoralis flow, Percental difference", "setting": "[2]", "value": "+44"}, {"measurement": "A. femoralis resistance, Duration of effect", "setting": "[2]", "value": 3, "unit": "min"}, {"measurement": "A. femoralis resistance, Percental difference", "setting": "[2]", "value": -45}, {"measurement": "A. vertebralis flow, Duration of effect", "setting": "[2]", "value": 2, "unit": "min"}, {"measurement": "A. vertebralis flow, Percental difference", "setting": "[2]", "value": "+51"}, {"measurement": "A. vertebralis resistance, Duration of effect", "setting": "[2]", "value": 2, "unit": "min"}, {"measurement": "A. vertebralis resistance, Percental difference", "setting": "[2]", "value": -45}, {"measurement": "Arterial blood pressure, Duration of effect", "setting": "[2]", "value": 5, "unit": "min"}, {"measurement": "Arterial blood pressure, Percental difference", "setting": "[2]", "value": -22}, {"measurement": "Contractibility of the left ventricle (dP/dt), Duration of effect", "setting": "[2]", "value": 2, "unit": "min"}, {"measurement": "Contractibility of the left ventricle (dP/dt), Percental difference", "setting": "[2]", "value": -17}, {"measurement": "Coronary flow, Duration of effect", "setting": "[2]", "value": 16, "unit": "min"}, {"measurement": "Coronary flow, Percental difference", "setting": "[2]", "value": "+36"}, {"measurement": "Coronary resistance, Duration of effect", "setting": "[2]", "value": 15, "unit": "min"}, {"measurement": "Coronary resistance, Percental difference", "setting": "[2]", "value": -34}, {"measurement": "Efficiency of cardial function, Duration of effect", "setting": "[2]", "value": 6, "unit": "min"}, {"measurement": "Efficiency of cardial function, Percental difference", "setting": "[2]", "value": "+45"}, {"measurement": "Frequence volume, Duration of effect", "setting": "[2]", "value": 35, "unit": "min"}, {"measurement": "Frequence volume, Percental difference", "setting": "[2]", "value": "+60"}, {"measurement": "Function of the left ventricle, Duration of effect", "setting": "[2]", "value": 7, "unit": "min"}, {"measurement": "Function of the left ventricle, Percental difference", "setting": "[2]", "value": -20}, {"measurement": "Heart frequence/min, Duration of effect", "setting": "[2]", "value": 31, "unit": "min"}, {"measurement": "Heart frequence/min, Percental difference", "setting": "[2]", "value": -22}, {"measurement": "Minute volume, Duration of effect", "setting": "[2]", "value": 4, "unit": "min"}, {"measurement": "Minute volume, Percental difference", "setting": "[2]", "value": "+11"}, {"measurement": "Myocardial oxygenization (O2 supply per O2 consumption), Duration of effect", "setting": "[2]", "value": 30, "unit": "min"}, {"measurement": "Myocardial oxygenization (O2 supply per O2 consumption), Percental difference", "setting": "[2]", "value": "+74"}, {"measurement": "Oxygen consumption of the left ventricle, Duration of effect", "setting": "[2]", "value": 22, "unit": "min"}, {"measurement": "Oxygen consumption of the left ventricle, Percental difference", "setting": "[2]", "value": -29}, {"measurement": "Total peripherial resistance, Duration of effect", "setting": "[2]", "value": 5, "unit": "min"}, {"measurement": "Total peripherial resistance, Percental difference", "setting": "[2]", "value": -23}, {"measurement": "Efficiency of cardial function, Changed value", "setting": "[2]; average ± S.E., basic value 0.11 ± 0.02", "value": "0.16 ± 0.02", "unit": "mkg/ml/100 g"}, {"measurement": "Coronary resistance, Changed value", "setting": "[2]; average ± S.E., basic value 1.16 ±0.06", "value": "0.76 ± 0.06", "unit": "Hgmm/ml/min/100 g"}, {"measurement": "Function of the left ventricle, Changed value", "setting": "[2]; average ± S.E., basic value 1.24 ± 0.08", "value": "0.99 ± 0.16", "unit": "mkg/min"}, {"measurement": "Myocardial oxygenization (O2 supply per O2 consumption), Changed value", "setting": "[2]; average ± S.E., basic value 1.70 ± 0.07", "value": "2.95 ± 0.21"}, {"measurement": "A. carotis resistance, Changed value", "setting": "[2]; average ± S.E., basic value 2.33 ± 0.23", "value": "2.02 ± 0.32", "unit": "Hgmm/ml/min"}, {"measurement": "A. vertebralis resistance, Changed value", "setting": "[2]; average ± S.E., basic value 3.28 ± 0.33", "value": "1.81 ± 0.17", "unit": "Hgmm/ml/min"}, {"measurement": "A. femoralis resistance, Changed value", "setting": "[2]; average ± S.E., basic value 4.84 ± 0.86", "value": "2.66 ± 0.42", "unit": "Hgmm/ml/min"}, {"measurement": "Frequence volume, Changed value", "setting": "[2]; average ± S.E., basic value 5.5 ± 0.3", "value": "8.8 ± 0.9", "unit": "mL"}, {"measurement": "Oxygen consumption of the left ventricle, Changed value", "setting": "[2]; average ± S.E., basic value 11.6 ± 0.9", "value": "8.2 ± 1.2", "unit": "ml/min/100 g"}, {"measurement": "A. femoralis flow, Changed value", "setting": "[2]; average ± S.E., basic value 34 ± 7", "value": "49 ± 10", "unit": "mL/min"}, {"measurement": "A. vertebralis flow, Changed value", "setting": "[2]; average ± S.E., basic value 43 ± 6", "value": "65 ± 9"}, {"measurement": "A. carotis flow, Changed value", "setting": "[2]; average ± S.E., basic value 70 ± 7", "value": "89 ± 13", "unit": "mL/min"}, {"measurement": "Coronary flow, Changed value", "setting": "[2]; average ± S.E., basic value 95 ± 5", "value": "129 ± 9", "unit": "ml/min/100 g"}, {"measurement": "Arterial blood pressure, Changed value", "setting": "[2]; average ± S.E., basic value 121 ± 5", "value": "94 ± 4", "unit": "Hgmm"}, {"measurement": "Heart frequence/min, Changed value", "setting": "[2]; average ± S.E., basic value 146 ± 8", "value": "114 ± 9", "unit": "min⁻¹"}, {"measurement": "Minute volume, Changed value", "setting": "[2]; average ± S.E., basic value 875 ± 42", "value": "975 ± 34", "unit": "mL/min"}, {"measurement": "Contractibility of the left ventricle (dP/dt), Changed value", "setting": "[2]; average ± S.E., basic value 5105 ± 434", "value": "4248 ± 865", "unit": "Hgmm/sec"}, {"measurement": "Total peripherial resistance, Changed value", "setting": "[2]; average ± S.E., basic value 10652 ± 991", "value": "8185 ± 748", "unit": "dyn. sec. cm^-5"}, {"measurement": "Arterial blood pressure, Duration of effect", "setting": "[3]", "value": 9, "unit": "min"}, {"measurement": "Arterial blood pressure, Percental difference", "setting": "[3]", "value": -43}, {"measurement": "Auricle fibrillation threshold, Duration of effect", "setting": "[3]", "value": 11, "unit": "min"}, {"measurement": "Auricle fibrillation threshold, Percental difference", "setting": "[3]", "value": "+58"}, {"measurement": "Ventricle fibrillation threshold, Duration of effect", "setting": "[3]", "value": 13, "unit": "min"}, {"measurement": "Ventricle fibrillation threshold, Percental difference", "setting": "[3]", "value": "+25"}, {"measurement": "Auricle fibrillation threshold, Changed value", "setting": "[3]; average ± S.E., basic value 0.73 ± 0.10", "value": "1.15 ± 0.11", "unit": "mA"}, {"measurement": "Ventricle fibrillation threshold, Changed value", "setting": "[3]; average ± S.E., basic value 2.07 ± 0.10", "value": "2.58 ± 0.09", "unit": "mA"}, {"measurement": "Arterial blood pressure, Changed value", "setting": "[3]; average ± S.E., basic value 139 ± 5", "value": "79 ± 8", "unit": "Hgmm"}, {"measurement": "LD50", "setting": "acute toxicity on rats; iv, i.v. on rats ♀", "value": 24.9, "unit": "mg/kg"}, {"measurement": "LD50", "setting": "acute toxicity on rats; iv, i.v. on rats ♂", "value": 23, "unit": "mg/kg"}, {"measurement": "LD50", "setting": "acute toxicity on rats; po, p.o. on rats ♀", "value": 625, "unit": "mg/kg"}, {"measurement": "LD50", "setting": "acute toxicity on rats; po, p.o. on rats ♂", "value": 493, "unit": "mg/kg"}, {"measurement": "LD50", "setting": "acute toxicity on mice; p.o. on mice ♀", "value": 165, "unit": "mg/kg"}, {"measurement": "LD50", "setting": "acute toxicity on mice; p.o. on mice ♂", "value": 269, "unit": "mg/kg"}]}]}
